Patent publication US12077555B2, “STAT degraders and uses thereof” (Kymera Therapeutics, Inc., priority 2019, dated 2024)
Where two headings read alike, the source gives them in different places.

Molecular target: STAT3 (Homo sapiens, UniProt P40763)
Assay: STAT3 HiBiT degradation assay in transfected A549 cells
Format: cell-based
Parameters: expressed in transfected cells; host or cells: A549
Protocol: Compound preparation and Cell seeding: The transfected A549 cells were harvested from dish into cell culture medium and cell numbers counted. Cells were diluted with culture medium to the desired density and 30 μL of cell suspension (about 2000 cells/well) were added into each well of a 384-well cell culture plate as designated and transferred into 37° C. 5% CO2 incubator for 24 h. Compounds were dissolved to 10 mM stock solution and 12 μL of the stock solution was transferred to a 384 LDV-plate. 3 fold, 10-point dilution was performed by transferring 4 μL compound into 8 μL DMSO using a TECAN (EVO200) liquid handler. 30 μL of diluted compound from compound source plate was transferred into the cell plate as designated by using Echo550 and transferred into 37° C. 5% CO2 incubator for 24 h.
Detection: Plates were removed from incubators and equilibrated at room temperature for 15 minutes. Nano-Glo Hibit Lytic Detection reagent (Promega Cat #N3040) was thawed and equilibrated to room temperature before the experiment. 30 μL of Nano-Glo Hibit Lytic Detection reagent was added into each well to be detected. The plates were held at room temperature for 10 min followed by reading on EnSpire.
Data analysis: The remaining activity was calculated following the formula: Remaining Activity (%)=100%×(Lumsample−LumNC)/(LumPC−LumNC). Calculate the IC50 by fitting the curve using Xlfit (v5.3.1.3), equation 201: fit=(A+((B−A)/(1+((x/C)^D)))); A: Bottom; B: Top; C: IC50; and D: Slope.
The letter codes for STAT3 DC50 include: A (<0.01 μM), B (0.01-0.1 μM), C (0.1-1.0 μM), and D (>1.0 μM).

[1] = A549, 24 h; read-out: STAT3 HiBiT A549 degradation 24 h: Average external-Abs DC50

Sequence of STAT3 (P40763 whole entry): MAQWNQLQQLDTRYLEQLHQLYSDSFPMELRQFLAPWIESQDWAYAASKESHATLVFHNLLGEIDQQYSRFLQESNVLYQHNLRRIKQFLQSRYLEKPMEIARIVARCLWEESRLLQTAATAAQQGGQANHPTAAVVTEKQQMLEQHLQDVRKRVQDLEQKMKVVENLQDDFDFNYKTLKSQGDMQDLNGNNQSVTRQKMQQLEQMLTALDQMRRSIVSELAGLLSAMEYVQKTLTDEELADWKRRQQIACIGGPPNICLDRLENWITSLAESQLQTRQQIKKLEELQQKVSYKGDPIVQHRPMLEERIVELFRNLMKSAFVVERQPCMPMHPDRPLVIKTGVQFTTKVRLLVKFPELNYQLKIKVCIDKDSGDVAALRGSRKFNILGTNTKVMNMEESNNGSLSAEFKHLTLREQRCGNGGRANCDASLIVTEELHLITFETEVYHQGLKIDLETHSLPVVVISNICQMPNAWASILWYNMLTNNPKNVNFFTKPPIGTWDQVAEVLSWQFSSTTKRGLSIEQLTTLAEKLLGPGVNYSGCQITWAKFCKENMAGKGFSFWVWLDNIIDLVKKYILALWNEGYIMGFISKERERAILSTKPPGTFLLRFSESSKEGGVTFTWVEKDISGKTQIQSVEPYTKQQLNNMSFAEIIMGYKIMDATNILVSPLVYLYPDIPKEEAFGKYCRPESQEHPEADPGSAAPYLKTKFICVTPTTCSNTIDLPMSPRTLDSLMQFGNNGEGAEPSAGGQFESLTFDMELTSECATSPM

| SMILES | DC50 [1] [nM] | DC50 (read-out: STAT3 HiBiT A549 degradation 24 h: Average external-Abs DC50; A549, 24 h) [nM] |
| --- | --- | --- |
| Cc1ncsc1-c1ccc(CNC(=O)[C@@H]2C[C@@H](O)CN2C(=O)[C@@H](NC(=O)CCc2cccc3cc(CO[C@H](C)[C@H](CCC(N)=O)NC(=O)[C@@H]4Cc5cccc6c5N4C(=O)[C@@H](NC(=O)c4cc5cc(C(=O)P(=O)(O)O)ccc5[nH]4)CC6)ccc23)C(C)(C)C)cc1 [Compound I-136, diammonium 2-[[(2S,11S)-2-[[(3S,4R)-1-carbamoyl-4-[[5-(2-[[(2S)-1-[(2S,4R)-4-hydroxy-2-([[4-(4-methyl-1,3-thiazol-5-yl)phenyl]methyl]carbamoyl)pyrrolidin-1-yl]-3,3-dimethyl-1-oxobutan-2-yl]carbamoyl]ethyl)naphthalen-2-yl]methoxy]pentan-3-yl]carbamoyl]-12-oxo-1-azatricyclo[6.4.1.0^[4,13]]trideca-4(13),5,7-trien-11-yl]carbamoyl]-1H-indole-5-carbonylphosphonate] | > 1000 | – |
| Cc1ncsc1-c1ccc(CNC(=O)[C@@H]2C[C@@H](O)CN2C(=O)[C@@H](NC(=O)CCCCc2ccc(CO[C@H](C)[C@H](CCC(N)=O)NC(=O)[C@@H]3[C@@H]4C[C@@H]4CN3C(=O)[C@H](CC(C)C)NC(=O)c3cc4cc(C(=O)P(=O)(O)O)ccc4[nH]3)cc2)C(C)(C)C)cc1 [Compound I-137, diammonium 2-[[(2S)-1-[(1R,2S,5S)-2-[[(3S,4R)-1-carbamoyl-4-[[4-(4-[[(2S)-1-[(2S,4R)-4-hydroxy-2-([[4-(4-methyl-1,3-thiazol-5-yl)phenyl]methyl]carbamoyl)pyrrolidin-1-yl]-3,3-dimethyl-1-oxobutan-2-yl]carbamoyl]butyl)phenyl]methoxy]pentan-3-yl]carbamoyl]-3-azabicyclo[3.1.0]hexan-3-yl]-4-methyl-1-oxopentan-2-yl]carbamoyl]-1H-indole-5-carbonylphosphonate] | – | 10 to 100 |
| Cc1ncsc1-c1ccc(CNC(=O)[C@@H]2C[C@@H](O)CN2C(=O)[C@@H](NC(=O)CCCc2ccc(CNC(=O)[C@H](CCC(N)=O)NC(=O)[C@@H]3Cc4cccc5c4N3C(=O)[C@@H](NC(=O)c3cc4cc(C(=O)P(=O)(O)O)ccc4[nH]3)CC5)cc2)C(C)(C)C)cc1 [Compound I-138] | > 1000 | – |
| Cc1ncsc1-c1ccc(CNC(=O)[C@@H]2C[C@@H](O)CN2C(=O)C(NC(=O)CCCCc2ccc(CNC(=O)[C@H](CCC(N)=O)NC(=O)[C@@H]3Cc4cccc5c4N3C(=O)[C@@H](NC(=O)c3cc4cc(C(=O)P(=O)(O)O)ccc4[nH]3)CC5)cc2)C(C)(C)C)cc1 (some centres unmarked) [Compound I-139] | > 1000 | – |
| Cc1ncsc1-c1ccc(CNC(=O)[C@@H]2C[C@@H](O)CN2C(=O)[C@@H](NC(=O)CCCCCc2ccc(CNC(=O)[C@H](CCC(N)=O)NC(=O)[C@@H]3Cc4cccc5c4N3C(=O)[C@@H](NC(=O)c3cc4cc(C(=O)P(=O)(O)O)ccc4[nH]3)CC5)cc2)C(C)(C)C)cc1 [Compound I-140] | > 1000 | – |
| Cc1ncsc1-c1ccc([C@H](C)NC(=O)[C@@H]2C[C@@H](O)CN2C(=O)[C@@H](NC(=O)CCCCc2ccc(COC[C@H](CCC(N)=O)NC(=O)[C@@H]3Cc4cccc5c4N3C(=O)[C@@H](NC(=O)c3cc4cc(C(=O)P(=O)(O)O)ccc4[nH]3)CC5)cc2)C(C)(C)C)cc1 [Compound I-141, diammonium 2-[[(2S,11S)-2-[[(2S)-4-carbamoyl-1-[[4-(4-[[(2S)-1-[(2S,4R)-4-hydroxy-2-[[(1S)-1-[4-(4-methyl-1,3-thiazol-5-yl)phenyl]ethyl]carbamoyl]pyrrolidin-l-yl]-3,3-dimethyl-1-oxobutan-2-yl]carbamoyl]butyl)phenyl]methoxy]butan-2-yl]carbamoyl]-12-oxo-1-azatricyclo[6.4.1.0^[4,13]]trideca-4(13),5,7-trien-11-yl]carbamoyl]-1H-indole-5-carbonylphosphonate] | 10 to 100 | – |
| C/C(=C\C(=O)N[C@H]1CCc2cccc3c2N(C1=O)[C@H](C(=O)N[C@@H](CCC(N)=O)[C@@H](C)OCc1ccc(CCCCC(=O)N[C@H](C(=O)N2C[C@H](O)C[C@H]2C(=O)N[C@@H](C)c2ccc(-c4scnc4C)cc2)C(C)(C)C)cc1)C3)c1cccc(C(F)(F)P(=O)(O)O)c1 [Compound I-142] | > 1000 | – |
| C/C(=C\C(=O)N[C@H]1CN(C(=O)CCCCCCc2ccc3c(c2)n(C)c(=O)n3C2CCC(=O)NC2=O)CC[C@H]2CC[C@@H](C(=O)N[C@@H](CCC(N)=O)C(=O)NC(c3ccccc3)c3ccccc3)N2C1=O)c1cccc(C(F)(F)P(=O)(O)O)c1 (stereo partly drawn) [Compound I-143, [3-[(1E)-1-[[(8S,10aR)-8-[[(1S)-3-carbamoyl-1-(diphenylmethylcarbamoyl)propyl]carbamoyl]-3-[7-[1-(2,6-dioxopiperidin-3-yl)-3-methyl-2-oxo-1,3-benzodiazol-5-yl]heptanoyl]-6-oxo-octahydropyrrolo[1,2-a][1,5]diazocin-5-yl]carbamoyl]prop-1-en-2-yl]phenyl]difluoromethylphosphonic acid] | > 1000 | – |
| Cc1ncsc1-c1ccc(CNC(=O)[C@@H]2C[C@@H](O)CN2C(=O)[C@@H](NC(=O)Cc2cccc(-c3ccc(CO[C@H](C)[C@H](CCC(N)=O)NC(=O)[C@@H]4Cc5cccc6c5N4C(=O)[C@@H](NC(=O)c4cc5cc(C(=O)P(=O)(O)O)ccc5[nH]4)CC6)cc3)c2)C(C)(C)C)cc1 [Compound I-145, 2-[[(2S,11S)-2-[[(3S,4R)-1-carbamoyl-4-[[3'-([[(2S)-1-[(2S,4R)-4-hydroxy-2-([[4-(4-methyl-1,3-thiazol-5-yl)phenyl]methyl]carbamoyl)pyrrolidin-1-yl]-3,3-dimethyl-1-oxobutan-2-yl]carbamoyl]methyl)-[1,1'-biphenyl]-4-yl]methoxy]pentan-3-yl]carbamoyl]-12-oxo-1-azatricyclo[6.4.1.0^[4,13]]trideca-4(13),5,7-trien-11-yl]carbamoyl]-1H-indole-5-carbonylphosphonic acid] | > 1000 | – |
| Cc1ncsc1-c1ccc(CNC(=O)[C@@H]2C[C@@H](O)CN2C(=O)[C@@H](NC(=O)[C@H]2C[C@H](Cc3ccc(CO[C@H](C)[C@H](CCC(N)=O)NC(=O)[C@@H]4Cc5cccc6c5N4C(=O)[C@@H](NC(=O)c4cc5cc(C(=O)P(=O)(O)O)ccc5[nH]4)CC6)cc3)C2)C(C)(C)C)cc1 [Compound I-146, diammonium 2-[[(2S,11S)-2-[[(3S,4R)-1-carbamoyl-4-[(4-[[(1r,3r)-3-[[(2S)-1-[(2S,4R)-4-hydroxy-2-([[4-(4-methyl-1,3-thiazol-5-yl)phenyl]methyl]carbamoyl)pyrrolidin-1-yl]-3,3-dimethyl-1-oxobutan-2-yl]carbamoyl]cyclobutyl]methyl]phenyl)methoxy]pentan-3-yl]carbamoyl]-12-oxo-1-azatricyclo[6.4.1.0^[4,13]]trideca-4(13),5,7-trien-11-yl]carbamoyl]-1H-indole-5-carbonylphosphonate] | 100 to 1000 | – |
| Cc1ncsc1-c1ccc(CNC(=O)[C@@H]2C[C@@H](O)CN2C(=O)[C@@H](NC(=O)CCCCCCCC(=O)N2CC[C@H]3CC[C@@H](C(=O)N[C@@H](CCC(N)=O)C(=O)NC(c4ccccc4)c4ccccc4)N3C(=O)[C@@H](NC(=O)c3cc4cc(C(=O)P(=O)(O)O)ccc4[nH]3)C2)C(C)(C)C)cc1 [Compound I-147] | > 1000 | – |
